This is an account of results in US7572436B1, “Thionin as an antineoplastic and immunostimulant” (priority 2000, dated 2009).

Where no end group is shown, it is not given here.

Data set [1] relates to DU-145 Target Cells. Description: Natural killer assay (^51Cr release), human PBLs against DU-145. The class given is cell-based. The following applies: PT 0.05 μg/ml. On the procedure:
Murine spleen cell and human peripheral blood lymphocytes (PBLs) were obtained as described in the procedure for the Mitogen Assay.
Drugs and control substances were added, using sterile techniques, to the wells of a 24-well plate, using RPMI-10 as the culture medium. Spleen cells or human lymphocytes were added last to the wells at a concentration of 4×10^6 cells per 2 ml total volume in the well. Splenocyte incubation was usually three days (65-70 hours) while human lymphocyte stimulation may be extended to four to five days. The cells were incubated at 37° C. in a humidified 5% CO2 incubator.
On the day of harvest, 10^7 target cells were labeled with 150 μCi of ^51Cr (sodium chromate). Target cells used were YAC-I (murine Lymphoma) or K562 (human chronic myelogenous leukemia). […]
The 96-well plate was centrifuged at 150×g for four minutes to gently bring the effector and target cells in contact. […] The percent release was calculated using the following formula: […]
Addition of PT stimulates both murine splenocytes and human PBLs to kill tumor cells through lysis. […] After a 30-minute incubation, the radioactivity in the supernatant fluid was counted as a measure of lysis of the target cells, which reflects NK activity. […]

The nature of data set [2]: Immunogenicity of PT.
Data set [3] deals with membrane structure of cells or phospholipid vesicles. The following applies: reported in the literature; begin around this value and continue up to and above 20 μg/ml; cited from earlier work.
The subject of data set [4] is T cells in the spleen and thymus. Description: FITC Thy-1.2 staining of T cells after ip injection. Type of data set: in vivo, Swiss Webster mice. On the procedure: Using sterile technique the spleen or thymus was removed from a mouse euthanized by CO2 gas. The organ was teased apart to collect splenocytes or thymocytes, respectively. The cells were treated with red cell lysing buffer at 37° C. to remove the erthyrocytes, then washed several times in culture medium, RPMI-10. The cells were counted using Trypan Blue exclusion to determine viable cell yield (as described above) and resuspended in PBS/1% BSA/0.1% sodium azide buffer (pH 7.2) at 2×10^7 cells/ml.
To a microfuge tube, in ice, was added 100 μl of cell suspension (2×10^7 cells/ml). Five microliters of FcγR Block (CD16/CD32 Block; Pharmingen, San Diego, Calif.), diluted to 50 μg/ml with PBS/BSA/Azide Buffer, is added. The tube was gently mixed and kept on ice for three minutes.
One hundred microliters of Thy 1.2 FITC stain (10 μg/ml) were added and the tube was gently vortexed. Cells were stained for 30 minutes at 4° C., followed by centrifugation in a microfuge centrifuge at 4500 rpm for three minutes. The cells were washed twice with 500 μl ice-cold PBS/BSA/Azide buffer, and resuspended each time by gentle vortexing.
One hundred microliters of 1% paraformaldehyde (in PBS) were added to the cell pellet, and the cells were thoroughly mixed, then incubated 20 minutes at 4° C. The cells were then washed once with 500 μl of 2.19% glycine and resuspended in 500 μl of sterile PBS.
Fifteen microliters of the stained cell suspension were placed as two non-overlapping spots on a 1-mm thick glass slide that had been cleaned with ethanol. The cell droplets were allowed to dry without spreading or using a cover slip. The slides were air-dried in a hood, covered with aluminum foil to exclude light (in order to prevent photobleaching). If the slide was pre-cleaned and dried correctly, the droplets will naturally dry to a diameter of about 10 mm. The slides should be read within one week.
Cells were evaluated using a Zeiss oil-immersion microscope (UV-lamp, filter #47; Carl Zeiss Inc., Thornwood, N.Y.). Non-stained cells appeared medium-brown in color on a dark background. […] Partially stained cells that have a partial ring were counted separately. The percentage of non-stained, partially stained, and completely stained cells was determined. At least 200 cells per slide were scored, but usually about 300-400 cells were counted.
Data set out in Table 4, and discussed above, indicate that PT stimulates mitogen activity with murine splenocytes in vitro. This could come about through the action of activated macrophages on T cells by IL-1 production and antigen presentation to the T cells. […] T cells were detected with fluorescent-labeled (FITC) Thy 1.2 monoclonal antibody, which is a general antibody for all T cells. The cells were counted manually with a fluorescent microscope, and the data are divided into cells with no stain (no fluorescence), cells with partial staining (medium fluorescence), and cells with intense staining (high fluorescence). The mice were injected with the indicated amount of PT intraperitoneally and the animals sacrificed after three days to obtain the spleen and thymus.

Take “Pyrularia thionin (KSCCRNTWARNCYNVCRLPGTISREICAKKCDCKIISGTTCPSDYPK; ends and bridges not checked; also: labeled with 125I) [PT]”: the “% Cytotoxicity” value in data set [1] stood at 11.5 ± 1.1%. For the same substance, the immunogenicity entry in data set [2] is listed as “not immunogenic”. Moreover, the “concentrations required to induce changes in the membrane structure of cells or phospholipid vesicles” value in data set [3] was at least 1000 ng/mL. The “number of T cells in the spleen and thymus” value in data set [4] (10 μg of PT injected intraperitoneally into Swiss Webster mice) was “increase in the number of T cells in the spleen and thymus”. Besides, the “Splenic cells, Medium Fluor.” value in data set [4] (Experiment 1, 7 week male mice, 10 μg PT ip, after three days, none: 13) turned out to be 24 ± 4.2%; in data set [4] (Experiment 2, 6 month male mice, 10 μg PT ip, after three days, none: 21), 36 ± 2.1%; in data set [4] (Experiment 3, 4 month females, 5 μg PT ip, after three days, none: 24), 28 ± 2.2%. For the same substance, the “Splenic cells, High Fluor.” value in data set [4] (Experiment 1, 7 week male mice, 10 μg PT ip, after three days, none: 18) came to 30 ± 5.0%; in data set [4] (Experiment 2, 6 month male mice, 10 μg PT ip, after three days, none: 29), 32 ± 1.4%; in data set [4] (Experiment 3, 4 month females, 5 μg PT ip, after three days, none: 26), 31 ± 2.5%. Further, the “Splenic cells, No Fluor.” value amounted to 46 ± 0.4% in data set [4] (Experiment 1, 7 week male mice, 10 μg PT ip, after three days, none: 69); 32 ± 1.1% in data set [4] (Experiment 2, 6 month male mice, 10 μg PT ip, after three days, none: 50); 41 ± 3.5% in data set [4] (Experiment 3, 4 month females, 5 μg PT ip, after three days, none: 50). Moreover, the “Thymus cells, High Fluor.” value in data set [4] (Experiment 3, 4 month females, 5 μg PT ip, after three days, none: 25) is on record as 39 ± 2.9%. For the same substance, the “Thymus cells, Medium Fluor.” value in data set [4] (Experiment 3, 4 month females, 5 μg PT ip, after three days, none: 27) was 29 ± 1.5%. Further, the “Thymus cells, No. Fluor.” value in data set [4] (Experiment 3, 4 month females, 5 μg PT ip, after three days, none: 48) was found to be 32 ± 4.4%.
